This passage reports pest or weed control, BAW rating and CL rating results from patent US20230077362A1 (CORTEVA AGRISCIENCE LLC, priority 2019, published 2023).

Assay [1] has as its system Beet Armyworm (Spodoptera exigua) ("BAW"), second instar larvae. Description: Bioassay on beet armyworm (BAW), 128-well diet tray assay. The note with it: for pest or weed control at 50 µg/cm2: Spodoptera exigua, read-out: BAW rating; for BAW rating: Table ABC, species BAW, C = not tested, D = no activity noticed. It counts as in vivo. The procedure, abridged:
(§1)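 Each value represents average percent mortality from eight wells. Larvae were kept in clear-covered trays at 25° C. for five to seven days on a 14-hour light, 10-hour dark schedule before scoring.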

For assay [2], the system named is Cabbage Looper (Trichoplusia ni) ("CL"), second instar larvae. Description: Bioassay on cabbage looper (CL), 128-well diet tray assay. It counts as in vivo. The note with it: for pest or weed control at 50 µg/cm2: Trichoplusia ni, read-out: CL rating; for CL rating: Table ABC, species CL, C = not tested, D = no activity noticed. The method, boiled down:
as §1

For the compound `Cc1cc(-c2cn(-c3ccc(S(F)(F)(F)(F)F)cc3)cn2)ccc1NC(=O)/N=C1\SCC(=O)N1c1cc(N(C)C)ccc1C(C)C` [Compound J618, (Z)-1-(3-(5-(Dimethylamino)-2-isopropylphenyl)-4-oxothiazolidin-2-ylidene)-3-(2-methyl-4-(1-(4-(pentafluoro-λ^6-sulfaneyl)phenyl)-1H-imidazol-4-yl)phenyl)urea], the pest or weed control at 50 µg/cm2 in assay [1] and in assay [2] was 50 to 100% throughout.

With `Cc1cc(-c2cn(-c3ccc(S(F)(F)(F)(F)F)cc3)cn2)ccc1NC(=O)/N=C1\SCC(=O)N1c1cc(N(C)C)c(F)cc1C(C)C` [Compound J619, (Z)-1-(3-(5-(Dimethylamino)-4-fluoro-2-isopropylphenyl)-4-oxothiazolidin-2-ylidene)-3-(2-methyl-4-(1-(4-(pentafluoro-λ^6-sulfaneyl)phenyl)-1H-imidazol-4-yl)phenyl)urea], the pest or weed control at 50 µg/cm2 in assay [1] and in assay [2] was 50 to 100% each time.

On to `CCOc1ccc(-n2cnc(-c3ccc(NC(=O)/N=C4\SCC(=O)N4c4cc(C)c(C)cc4COCC(F)(F)F)c(F)c3)n2)cc1` [Compound J620], for which the BAW rating result in assay [1] is “A (50-100)”. Also, in assay [2], the CL rating result is on record as “A (50-100)”.

Consider `Cc1ccc(COCc2ccc(F)cc2C(F)(F)F)c(N2C(=O)CS/C2=N\C(=O)Nc2ccc(-c3ncn(-c4ccc(OC(F)(F)F)cc4)n3)cc2F)c1` [Compound J621, (Z)-1-(3-(2-(((4-Fluoro-2-(trifluoromethyl)benzyl)oxy)methyl)-5-methylphenyl)-4-oxothiazolidin-2-ylidene)-3-(2-fluoro-4-(1-(4-(trifluoromethoxy)phenyl)-1H-1,2,4-triazol-3-yl)phenyl)urea], for which the pest or weed control at 50 µg/cm2 in assay [1] and in assay [2] was 50 to 100% in each case.

On to `Cc1ccc(COCc2c(F)c(F)c(F)c(F)c2F)c(N2C(=O)CS/C2=N\C(=O)Nc2ccc(-c3ncn(-c4ccc(OC(F)(F)F)cc4)n3)cc2F)c1` [Compound J622, (Z)-1-(2-Fluoro-4-(1-(4-(trifluoromethoxy)phenyl)-1H-1,2,4-triazol-3-yl)phenyl)-3-(3-(5-methyl-2-(((perfluorophenyl)methoxy)methyl)phenyl)-4-oxothiazolidin-2-ylidene)urea], for which the pest or weed control at 50 µg/cm2 in assay [1] and in assay [2] was 50 to 100% throughout.

With `CCOc1ccc(-n2cnc(-c3ccc(NC(=O)/N=C4\SCC(=O)N4c4cc(C)ccc4COCC(F)(F)F)c(F)c3)n2)cc1` [Compound J625], the BAW rating result in assay [1] is “A (50-100)”. Moreover, the CL rating entry in assay [2] is listed as “A (50-100)”.

On to `Cc1ccc(COCC(F)(F)F)c(N2C(=O)CS/C2=N\C(=O)Nc2ccc(-c3ncn(-c4ccc(S(F)(F)(F)(F)F)cc4)n3)cc2C(F)(F)F)c1` [Compound J626, (Z)-1-(3-(5-Methyl-2-((2,2,2-trifluoroethoxy)methyl)phenyl)-4-oxothiazolidin-2-ylidene)-3-(4-(1-(4-(pentafluoro-λ^6-sulfaneyl)phenyl)-1H-1,2,4-triazol-3-yl)-2-(trifluoromethyl)phenyl)urea], for which the pest or weed control at 50 µg/cm2 in assay [1] and in assay [2] was 50 to 100% throughout.

Turning to `CCOCc1ccc(C)cc1N1C(=O)CS/C1=N\C(=O)Nc1ccc(-c2ncn(-c3ccc(S(F)(F)(F)(F)F)cc3)n2)cc1C(F)(F)F` [Compound J627, (Z)-1-(3-(2-(Ethoxymethyl)-5-methylphenyl)-4-oxothiazolidin-2-ylidene)-3-(4-(1-(4-(pentafluoro-λ^6-sulfaneyl)phenyl)-1H-1,2,4-triazol-3-yl)-2-(trifluoromethyl)phenyl)urea], the pest or weed control at 50 µg/cm2 in assay [1] and in assay [2] was 50 to 100% throughout.

For `CCCc1ccc(C)cc1N1C(=O)CS/C1=N\C(=O)Nc1ccc(-c2ncn(-c3ccc(S(F)(F)(F)(F)F)cc3)n2)cc1C(F)(F)F` [Compound J628, (Z)-1-(3-(5-Methyl-2-propylphenyl)-4-oxothiazolidin-2-ylidene)-3-(4-(1-(4-(pentafluoro-λ^6-sulfaneyl)phenyl)-1H-1,2,4-triazol-3-yl)-2-(trifluoromethyl)phenyl)urea], the pest or weed control at 50 µg/cm2 in assay [1] and in assay [2] was 50 to 100% throughout.

As for `Cc1ccc(OCCC(F)(F)F)c(N2C(=O)CS/C2=N\C(=O)Nc2ccc(-c3ncn(-c4ccc(S(F)(F)(F)(F)F)cc4)n3)cc2C(F)(F)F)c1` [Compound J629, (Z)-1-(3-(5-Methyl-2-(3,3,3-trifluoropropoxy)phenyl)-4-oxothiazolidin-2-ylidene)-3-(4-(1-(4-(pentafluoro-λ^6-sulfaneyl)phenyl)-1H-1,2,4-triazol-3-yl)-2-(trifluoromethyl)phenyl)urea], the pest or weed control at 50 µg/cm2 in assay [1] and in assay [2] was 50 to 100% throughout.

In the case of `CC(C)c1ccc(N(C)C)cc1N1C(=O)CS/C1=N\C(=O)Nc1ccc(-c2ncn(-c3ccc(S(F)(F)(F)(F)F)cc3)n2)cc1C(F)(F)F` [Compound J630, (Z)-1-(3-(5-(Dimethylamino)-2-isopropylphenyl)-4-oxothiazolidin-2-ylidene)-3-(4-(1-(4-(pentafluoro-λ^6-sulfaneyl)phenyl)-1H-1,2,4-triazol-3-yl)-2-(trifluoromethyl)phenyl)urea], the pest or weed control at 50 µg/cm2 in assay [1] and in assay [2] was 50 to 100% each time.

For the compound `CCOC(C)c1ccc(C)cc1N1C(=O)CS/C1=N\C(=O)Nc1ccc(-c2ncn(-c3ccc(S(F)(F)(F)(F)F)cc3)n2)cc1C(F)(F)F` (centres unmarked) [Compound J631, (Z)-1-(3-(2-(1-Ethoxyethyl)-5-methylphenyl)-4-oxothiazolidin-2-ylidene)-3-(4-(1-(4-(pentafluoro-λ^6-sulfaneyl)phenyl)-1H-1,2,4-triazol-3-yl)-2-(trifluoromethyl)phenyl)urea], the pest or weed control at 50 µg/cm2 in assay [1] and in assay [2] was 50 to 100% throughout.

In the case of `Cc1cc(COCC(F)(F)F)c(N2C(=O)CS/C2=N\C(=O)Nc2ccc(-c3ncn(-c4ccc(S(F)(F)(F)(F)F)cc4)n3)cc2C(F)(F)F)cc1C` [Compound J632, (Z)-1-(3-(4,5-Dimethyl-2-((2,2,2-trifluoroethoxy)methyl)phenyl)-4-oxothiazolidin-2-ylidene)-3-(4-(1-(4-(pentafluoro-λ^6-sulfaneyl)phenyl)-1H-1,2,4-triazol-3-yl)-2-(trifluoromethyl)phenyl)urea], the pest or weed control at 50 µg/cm2 in assay [1] and in assay [2] was 50 to 100% in each case.

In the case of `COc1cc(COCC(F)(F)F)c(N2C(=O)CS/C2=N\C(=O)Nc2ccc(-c3ncn(-c4ccc(S(F)(F)(F)(F)F)cc4)n3)cc2C(F)(F)F)cc1OC` [Compound J633, (Z)-1-(3-(4,5-Dimethoxy-2-((2,2,2-trifluoroethoxy)methyl)phenyl)-4-oxothiazolidin-2-ylidene)-3-(4-(1-(4-(pentafluoro-λ^6-sulfaneyl)phenyl)-1H-1,2,4-triazol-3-yl)-2-(trifluoromethyl)phenyl)urea], the pest or weed control at 50 µg/cm2 in assay [1] and in assay [2] was 50 to 100% in each case.

For `CCc1ccc(COCC(F)(F)F)c(N2C(=O)CS/C2=N\C(=O)Nc2ccc(-c3ncn(-c4ccc(OC(F)(F)F)cc4)n3)cc2F)c1` [Compound J634], the BAW rating entry in assay [1] is “A (50-100)”. The CL rating result in assay [2] is listed as “A (50-100)”.

Regarding `Cc1ccc(COCc2ccccc2F)c(N2C(=O)CS/C2=N\C(=O)Nc2ccc(-c3ncn(-c4ccc(OC(F)(F)F)cc4)n3)cc2F)c1` [Compound J635, (Z)-1-(2-Fluoro-4-(1-(4-(trifluoromethoxy)phenyl)-1H-1,2,4-triazol-3-yl)phenyl)-3-(3-(2-(((2-fluorobenzyl)oxy)methyl)-5-methylphenyl)-4-oxothiazolidin-2-ylidene)urea], the pest or weed control at 50 µg/cm2 in assay [1] and in assay [2] was 50 to 100% each time.

As for `O=C(/N=C1\SCC(=O)N1c1ccc(Cl)cc1COCc1ccccc1)Nc1ccc(-c2ncn(-c3ccc(OC(F)(F)F)cc3)n2)cc1F` [Compound J636, (Z)-1-(3-(2-((Benzyloxy)methyl)-4-chlorophenyl)-4-oxothiazolidin-2-ylidene)-3-(2-fluoro-4-(1-(4-(trifluoromethoxy)phenyl)-1H-1,2,4-triazol-3-yl)phenyl)urea], the pest or weed control at 50 µg/cm2 was in the range of 50 to 100% in assay [1] and 0 to 50% in assay [2].

In the case of `Cc1ccc(COCc2nc3ccccc3s2)c(N2C(=O)CS/C2=N\C(=O)Nc2ccc(-c3ncn(-c4ccc(OC(F)(F)F)cc4)n3)cc2F)c1` [Compound J640, (Z)-1-(3-(2-((Benzo[d]thiazol-2-ylmethoxy)methyl)-5-methylphenyl)-4-oxothiazolidin-2-ylidene)-3-(2-fluoro-4-(1-(4-(trifluoromethoxy)phenyl)-1H-1,2,4-triazol-3-yl)phenyl)urea], the pest or weed control at 50 µg/cm2 in assay [1] and in assay [2] was 50 to 100% in each case.

As for `CCc1ccc(COCC(F)(F)F)c(N2C(=O)CS/C2=N\C(=O)Nc2ccc(-c3ncn(-c4ccc(OC(F)(F)F)cc4)n3)cc2C)c1` [Compound J641], the BAW rating result in assay [1] is reported as “A (50-100)”. Also, the CL rating result in assay [2] was “A (50-100)”.

`CCc1ccc(COCC(F)(F)F)c(N2C(=O)CS/C2=N\C(=O)Nc2ccc(-c3ncn(-c4ccc(C(F)(F)F)cc4)n3)cc2F)c1` [Compound J642]: the BAW rating result in assay [1] is reported as “A (50-100)”. Besides, the CL rating entry in assay [2] is recorded as “A (50-100)”.

On to `Cc1ccc(C(C)C)c(N2C(=O)CS/C2=N\C(=O)Nc2ccc(-c3cn(-c4ccc(S(=O)(=O)C(F)(F)F)cc4)cn3)cc2F)c1` [Compound J651, (Z)-1-(2-Fluoro-4-(1-(4-((trifluoromethyl)sulfonyl)phenyl)-1H-imidazol-4-yl)phenyl)-3-(3-(2-isopropyl-5-methylphenyl)-4-oxothiazolidin-2-ylidene)urea], for which the pest or weed control at 50 µg/cm2 in assay [1] and in assay [2] was 50 to 100% in each case.

On to `Cc1cc(COCC(F)(F)F)c(N2C(=O)CS/C2=N\C(=O)Nc2ccc(-c3ncn(-c4ccc(C(F)(F)F)cc4)n3)cc2F)cc1C` [Compound J660], for which the BAW rating entry in assay [1] is on record as “A (50-100)”. The CL rating entry in assay [2] is “A (50-100)”.
